Reference: ChEMBL document CHEMBL3885861, “Open TG-GATES”

Species on record: Rattus norvegicus
Assay: Open TG-GATES - Regimen: Single
Assay type: toxicity, organism-based, Sprague-Dawley
Set-up: regimen Single, gender Male, age 6 weeks
Conditions: in vivo, po, route gavage; for APTT / Bas / Eos / Fbg / Hb / Ht / Lym / MCH / MCHC / MCV / Mono / Neu / PT / Plat / RBC / Ret / WBC: tissue Blood; for KIDNEY_L / KIDNEY_R / KIDNEY_TOTAL: tissue Kidney; for LIVER: tissue Liver; for A/G / ALP / ALT / AST / BUN / CRE / Ca / Cl / DBIL / GLC / IP / K / LDH / Na / PL / RALB / TBIL / TC / TG / TP / gamma-GTP: tissue Plasma
[1] = 200 mg/kg, 3 h, dose level Middle
[2] = 200 mg/kg, 6 h, dose level Middle
[3] = 200 mg/kg, 9 h, dose level Middle
[4] = 200 mg/kg, 24 h, dose level Middle
[5] = 600 mg/kg, 3 h, dose level High
[6] = 600 mg/kg, 6 h, dose level High
[7] = 600 mg/kg, 9 h, dose level High
[8] = 600 mg/kg, 24 h, dose level High

C[C@](N)(Cc1ccc(O)c(O)c1)C(=O)O [METHYLDOPA]
TERMINAL_BW [1]: 187.9 g
APTT [1]: 15.7 s
Bas [1]: 0.2%
Eos [1]: 0.8%
Fbg [1]: 274 mg/dL
Hb [1]: 13.1 g/dL
Ht [1]: 39.2%
Lym [1]: 79%
MCH [1]: 21.5 pg
MCHC [1]: 33.4%
MCV [1]: 64.6 fL
Mono [1]: 3.4%
Neu [1]: 15.8%
PT [1]: 12.4 s
Plat [1]: 105.6 x10_4/uL
RBC [1]: 607 x10_4/ul
Ret [1]: 10.7%
WBC [1]: 91.2 x10_2/uL
KIDNEY_L [1]: 0.9 g
KIDNEY_R [1]: 0.8 g
KIDNEY_TOTAL [1]: 1.7 g
LIVER [1]: 7.8 g
A/G [1]: 0.9
ALP [1]: 1861.2 IU/L
ALT [1]: 55 IU/L
AST [1]: 80.2 IU/L
BUN [1]: 9 mg/dL
CRE [1]: 0.1 mg/dL
Ca [1]: 11.4 mg/dL
Cl [1]: 107.2 meq/L
DBIL [1]: 0.008 mg/dL
GLC [1]: 205.8 mg/dL
IP [1]: 9.8 mg/dL
K [1]: 4.6 meq/L
LDH [1]: 64.4 IU/L
Na [1]: 142.2 meq/L
PL [1]: 129.2 mg/dL
RALB [1]: 2.6 g/dL
TBIL [1]: 0.058 mg/dL
TC [1]: 78.6 mg/dL
TG [1]: 45 mg/dL
TP [1]: 5.4 g/dL
gamma-GTP [1]: 1.2 IU/L
TERMINAL_BW [2]: 189 g
APTT [2]: 16.4 s
Bas [2]: 0%
Eos [2]: 0.6%
Fbg [2]: 267.4 mg/dL
Hb [2]: 13.5 g/dL
Ht [2]: 41.1%
Lym [2]: 73.8%
MCH [2]: 21.1 pg
MCHC [2]: 32.8%
MCV [2]: 64.3 fL
Mono [2]: 3%
Neu [2]: 22.2%
PT [2]: 12.2 s
Plat [2]: 120.2 x10_4/uL
RBC [2]: 640.2 x10_4/ul
Ret [2]: 11.7%
WBC [2]: 56.8 x10_2/uL
KIDNEY_L [2]: 0.8 g
KIDNEY_R [2]: 0.8 g
KIDNEY_TOTAL [2]: 1.6 g
LIVER [2]: 7.9 g
A/G [2]: 0.9
ALP [2]: 1438.2 IU/L
ALT [2]: 48.2 IU/L
AST [2]: 71.6 IU/L
BUN [2]: 6.6 mg/dL
CRE [2]: 0.1 mg/dL
Ca [2]: 11.8 mg/dL
Cl [2]: 107 meq/L
DBIL [2]: 0.006 mg/dL
GLC [2]: 219.4 mg/dL
IP [2]: 13 mg/dL
K [2]: 5.3 meq/L
LDH [2]: 58.8 IU/L
Na [2]: 144.6 meq/L
PL [2]: 130.2 mg/dL
RALB [2]: 2.5 g/dL
TBIL [2]: 0.054 mg/dL
TC [2]: 85.8 mg/dL
TG [2]: 45.8 mg/dL
TP [2]: 5.3 g/dL
gamma-GTP [2]: 1 IU/L
TERMINAL_BW [3]: 186.6 g
APTT [3]: 16.1 s
Bas [3]: 0%
Eos [3]: 1.2%
Fbg [3]: 268.6 mg/dL
Hb [3]: 13.1 g/dL
Ht [3]: 38.8%
Lym [3]: 77.6%
MCH [3]: 22.3 pg
MCHC [3]: 33.8%
MCV [3]: 66 fL
Mono [3]: 2.8%
Neu [3]: 17.6%
PT [3]: 12.2 s
Plat [3]: 121.1 x10_4/uL
RBC [3]: 588.8 x10_4/ul
Ret [3]: 10.8%
WBC [3]: 53.5 x10_2/uL
KIDNEY_L [3]: 0.8 g
KIDNEY_R [3]: 0.8 g
KIDNEY_TOTAL [3]: 1.6 g
LIVER [3]: 7.2 g
A/G [3]: 0.9
ALP [3]: 1466.4 IU/L
ALT [3]: 43.4 IU/L
AST [3]: 71.8 IU/L
BUN [3]: 7 mg/dL
CRE [3]: 0.1 mg/dL
Ca [3]: 11 mg/dL
Cl [3]: 107 meq/L
DBIL [3]: 0.008 mg/dL
GLC [3]: 203.2 mg/dL
IP [3]: 11.2 mg/dL
K [3]: 4.9 meq/L
LDH [3]: 57.4 IU/L
Na [3]: 143.6 meq/L
PL [3]: 131.6 mg/dL
RALB [3]: 2.5 g/dL
TBIL [3]: 0.07 mg/dL
TC [3]: 83.6 mg/dL
TG [3]: 49.6 mg/dL
TP [3]: 5.3 g/dL
gamma-GTP [3]: 1 IU/L
TERMINAL_BW [4]: 192.7 g
APTT [4]: 16 s
Bas [4]: 0%
Eos [4]: 1%
Fbg [4]: 251.2 mg/dL
Hb [4]: 13.2 g/dL
Ht [4]: 39.1%
Lym [4]: 75.4%
MCH [4]: 22.1 pg
MCHC [4]: 33.9%
MCV [4]: 65.1 fL
Mono [4]: 2.8%
Neu [4]: 20.4%
PT [4]: 12.6 s
Plat [4]: 115.8 x10_4/uL
RBC [4]: 600.4 x10_4/ul
Ret [4]: 9.3%
WBC [4]: 76.2 x10_2/uL
KIDNEY_L [4]: 0.9 g
KIDNEY_R [4]: 0.8 g
KIDNEY_TOTAL [4]: 1.7 g
LIVER [4]: 8.9 g
A/G [4]: 0.9
ALP [4]: 1671.8 IU/L
ALT [4]: 58.2 IU/L
AST [4]: 80.8 IU/L
BUN [4]: 15.8 mg/dL
CRE [4]: 0.2 mg/dL
Ca [4]: 11.4 mg/dL
Cl [4]: 107.6 meq/L
DBIL [4]: 0.014 mg/dL
GLC [4]: 191 mg/dL
IP [4]: 8.6 mg/dL
K [4]: 4.6 meq/L
LDH [4]: 73.6 IU/L
Na [4]: 144.4 meq/L
PL [4]: 136.4 mg/dL
RALB [4]: 2.6 g/dL
TBIL [4]: 0.064 mg/dL
TC [4]: 80 mg/dL
TG [4]: 68.6 mg/dL
TP [4]: 5.5 g/dL
gamma-GTP [4]: 1 IU/L
TERMINAL_BW [5]: 186.5 g
APTT [5]: 15.6 s
Bas [5]: 0%
Eos [5]: 0.8%
Fbg [5]: 261.6 mg/dL
Hb [5]: 13.2 g/dL
Ht [5]: 39.8%
Lym [5]: 74.6%
MCH [5]: 22 pg
MCHC [5]: 33.1%
MCV [5]: 66.7 fL
Mono [5]: 3.4%
Neu [5]: 20.8%
PT [5]: 12.2 s
Plat [5]: 112.5 x10_4/uL
RBC [5]: 597.2 x10_4/ul
Ret [5]: 10.6%
WBC [5]: 68.3 x10_2/uL
KIDNEY_L [5]: 0.8 g
KIDNEY_R [5]: 0.8 g
KIDNEY_TOTAL [5]: 1.6 g
LIVER [5]: 7.8 g
A/G [5]: 0.9
ALP [5]: 1837.6 IU/L
ALT [5]: 55.2 IU/L
AST [5]: 84.4 IU/L
BUN [5]: 9.4 mg/dL
CRE [5]: 0.1 mg/dL
Ca [5]: 11.3 mg/dL
Cl [5]: 108.2 meq/L
DBIL [5]: 0.018 mg/dL
GLC [5]: 204.4 mg/dL
IP [5]: 9.8 mg/dL
K [5]: 4.6 meq/L
LDH [5]: 59.6 IU/L
Na [5]: 143.4 meq/L
PL [5]: 133.6 mg/dL
RALB [5]: 2.5 g/dL
TBIL [5]: 0.054 mg/dL
TC [5]: 76.6 mg/dL
TG [5]: 70.8 mg/dL
TP [5]: 5.4 g/dL
gamma-GTP [5]: 1 IU/L
TERMINAL_BW [6]: 187.6 g
APTT [6]: 17.1 s
Bas [6]: 0%
Eos [6]: 0.8%
Fbg [6]: 272.2 mg/dL
Hb [6]: 13.7 g/dL
Ht [6]: 41.1%
Lym [6]: 81%
MCH [6]: 21.7 pg
MCHC [6]: 33.3%
MCV [6]: 65.2 fL
Mono [6]: 2.4%
Neu [6]: 15.4%
PT [6]: 12.3 s
Plat [6]: 136.7 x10_4/uL
RBC [6]: 631 x10_4/ul
Ret [6]: 9.9%
WBC [6]: 49.9 x10_2/uL
KIDNEY_L [6]: 0.8 g
KIDNEY_R [6]: 0.8 g
KIDNEY_TOTAL [6]: 1.7 g
LIVER [6]: 7.7 g
A/G [6]: 0.9
ALP [6]: 1883.6 IU/L
ALT [6]: 52 IU/L
AST [6]: 81 IU/L
BUN [6]: 6 mg/dL
CRE [6]: 0.1 mg/dL
Ca [6]: 11.7 mg/dL
Cl [6]: 105.2 meq/L
DBIL [6]: 0.006 mg/dL
GLC [6]: 225.8 mg/dL
IP [6]: 13.1 mg/dL
K [6]: 5.4 meq/L
LDH [6]: 71.8 IU/L
Na [6]: 144.8 meq/L
PL [6]: 122 mg/dL
RALB [6]: 2.6 g/dL
TBIL [6]: 0.054 mg/dL
TC [6]: 76.6 mg/dL
TG [6]: 38 mg/dL
TP [6]: 5.6 g/dL
gamma-GTP [6]: 1 IU/L
TERMINAL_BW [7]: 188.2 g
APTT [7]: 17.2 s
Bas [7]: 0%
Eos [7]: 0.4%
Fbg [7]: 262.8 mg/dL
Hb [7]: 13.5 g/dL
Ht [7]: 40.3%
Lym [7]: 79%
MCH [7]: 22.1 pg
MCHC [7]: 33.6%
MCV [7]: 65.8 fL
Mono [7]: 2.6%
Neu [7]: 17.4%
PT [7]: 12.5 s
Plat [7]: 122.5 x10_4/uL
RBC [7]: 614.4 x10_4/ul
Ret [7]: 9.7%
WBC [7]: 52.4 x10_2/uL
KIDNEY_L [7]: 0.8 g
KIDNEY_R [7]: 0.8 g
KIDNEY_TOTAL [7]: 1.6 g
LIVER [7]: 7.3 g
A/G [7]: 0.9
ALP [7]: 1418.8 IU/L
ALT [7]: 46.2 IU/L
AST [7]: 67.8 IU/L
BUN [7]: 6.2 mg/dL
CRE [7]: 0.1 mg/dL
Ca [7]: 11.4 mg/dL
Cl [7]: 105.6 meq/L
DBIL [7]: 0.008 mg/dL
GLC [7]: 220 mg/dL
IP [7]: 11.8 mg/dL
K [7]: 4.9 meq/L
LDH [7]: 62 IU/L
Na [7]: 144.2 meq/L
PL [7]: 120 mg/dL
RALB [7]: 2.5 g/dL
TBIL [7]: 0.056 mg/dL
TC [7]: 75.4 mg/dL
TG [7]: 30.8 mg/dL
TP [7]: 5.3 g/dL
gamma-GTP [7]: 1 IU/L
TERMINAL_BW [8]: 180.6 g
APTT [8]: 16.9 s
Bas [8]: 0%
Eos [8]: 1%
Fbg [8]: 251.2 mg/dL
Hb [8]: 13.4 g/dL
Ht [8]: 39.6%
Lym [8]: 76%
MCH [8]: 21.9 pg
MCHC [8]: 33.9%
MCV [8]: 64.5 fL
Mono [8]: 3%
Neu [8]: 20%
PT [8]: 12.5 s
Plat [8]: 133.6 x10_4/uL
RBC [8]: 613.2 x10_4/ul
Ret [8]: 9.5%
WBC [8]: 49.4 x10_2/uL
KIDNEY_L [8]: 0.9 g
KIDNEY_R [8]: 0.9 g
KIDNEY_TOTAL [8]: 1.8 g
LIVER [8]: 7.5 g
A/G [8]: 0.9
ALP [8]: 1827.4 IU/L
ALT [8]: 50 IU/L
AST [8]: 73.4 IU/L
BUN [8]: 20 mg/dL
CRE [8]: 0.2 mg/dL
Ca [8]: 11.4 mg/dL
Cl [8]: 108.2 meq/L
DBIL [8]: 0.02 mg/dL
GLC [8]: 202.2 mg/dL
IP [8]: 8.8 mg/dL
K [8]: 4.8 meq/L
LDH [8]: 63.4 IU/L
Na [8]: 146.2 meq/L
PL [8]: 139.4 mg/dL
RALB [8]: 2.7 g/dL
TBIL [8]: 0.074 mg/dL
TC [8]: 84 mg/dL
TG [8]: 60.6 mg/dL
TP [8]: 5.7 g/dL
gamma-GTP [8]: 1 IU/L
